Assay results taken from the supplement of paper PMC10307832.

Assays:
Test in all cases: relative viability (nuclei count vs DMSO), 5 days (fraction); higher = more cells survive
Shikonin + Luminespib = compound: CC(C)=CC[C@@H](O)C1=CC(=O)c2c(O)ccc(O)c2C1=O [Shikonin] + CCNC(=O)c1noc(-c2cc(C(C)C)c(O)cc2O)c1-c1ccc(CN2CCOCC2)cc1 [Luminespib] (partner 0.01 µM)
Procedure, shortened: (§1)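 The day after seeding in 1536-well plates, lung cancer cell lines were treated by pin tool with a single drug, or with a fixed anchor-drug dose together with five library-drug doses (not always all listed) in √10 steps. After 5 days, a combined fix-and-stain solution (final 0.05% Triton X-100, 1% formaldehyde, 1 ug/ml Hoechst) was added. Nuclei counted on 4× images gave relative viability as treated counts over vehicle counts, reported as the median of duplicate plates.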

Shikonin + Olaparib = compound: CC(C)=CC[C@@H](O)C1=CC(=O)c2c(O)ccc(O)c2C1=O [Shikonin] + O=C(c1cc(Cc2n[nH]c(=O)c3ccccc23)ccc1F)N1CCN(C(=O)C2CC2)CC1 [Olaparib] (partner 8 µM)
Procedure, shortened: as §1

[1] = compound: CC(C)N(CCCNC(=O)Nc1ccc(C(C)(C)C)cc1)C[C@H]1O[C@@H](n2ccc3c(N)ncnc32)[C@H](O)[C@@H]1O + CS(=O)(=O)N1CCN(Cc2cc3nc(-c4cccc5[nH]ncc45)nc(N4CCOCC4)c3s2)CC1 [Pictilisib] (partner 1 µM)
Procedure, shortened: as §1

[2] = compound: CC(C)N(CCCNC(=O)Nc1ccc(C(C)(C)C)cc1)C[C@H]1O[C@@H](n2ccc3c(N)ncnc32)[C@H](O)[C@@H]1O + NC(=O)Nc1cc(-c2cccc(F)c2)sc1C(=O)N[C@H]1CCCNC1 [AZD7762] (partner 0.2 µM)
Procedure, shortened: as §1

Cell Line	relative viability (Shikonin + Luminespib; first compound 0.01 µM)	relative viability (Shikonin + Luminespib; first compound 0.1 µM)	relative viability (Shikonin + Luminespib; first compound 0.3162 µM)	relative viability (Shikonin + Luminespib; first compound 1 µM)	relative viability (Shikonin + Olaparib; first compound 0.01 µM)	relative viability (Shikonin + Olaparib; first compound 0.1 µM)	relative viability (Shikonin + Olaparib; first compound 0.3162 µM)	relative viability (Shikonin + Olaparib; first compound 1 µM)	relative viability ([1]; first compound 0.08 µM)	relative viability ([1]; first compound 0.253 µM)	relative viability ([1]; first compound 0.8 µM)	relative viability ([1]; first compound 2.53 µM)	relative viability ([1]; first compound 8 µM)	relative viability ([2]; first compound 0.08 µM)	relative viability ([2]; first compound 0.253 µM)	relative viability ([2]; first compound 0.8 µM)	relative viability ([2]; first compound 2.53 µM)	relative viability ([2]; first compound 8 µM)
NCI-H1734	0.173	0.199	0.216	0.131	0.697	0.655	0.695	0.632	0.405	0.531	0.435	0.496	0.413	0.546	0.441	0.634	0.565	0.466
EMC-BAC-2	1.25	1.44	1.3	1.24	0.484	0.562	0.486	0.427	0.601	0.49	0.581	0.522	0.502	1.08	1.1	1.08	1.03	0.979
NCI-H647	0.169	0.142	0.147	0.159	0.723	0.597	0.488	0.47	0.406		0.403	0.45	0.372	0.457	0.523	0.509	0.366	0.414
NCI-H1792	0.554	0.361	0.371	0.544	0.263	0.314	0.463	0.427	0.26	0.245	0.219	0.254	0.267	0.68		0.46	0.569	0.601
ChaGo-K-1	0.635	0.82	0.55	0.415	0.425	0.438	0.387	0.462	0.771	0.726	0.658	0.632	0.912	0.881	0.936	0.858	0.863	0.79
LOU-NH91	0.317	0.358	0.382	0.332	0.926	0.937	0.984	0.896	0.537	0.527		0.556	0.545	0.751	0.697		0.763	0.767
NCI-H3122	0.0973	0.0926	0.0903	0.0968	0.655	0.631	0.621	0.679	0.653	0.576	0.634	0.493	0.553	0.967	1.03	1.02	0.907	0.959
LCLC-97TM1	0.833	0.776	0.878	0.717	0.383	0.539	0.48	0.419	0.184		0.147	0.202	0.178	0.233	0.266	0.354	0.235	0.147
NCI-H650	0.678	0.822	0.79	0.61	0.373	0.406	0.399	0.345	0.807	0.907	0.887	0.867	0.824	1.07	0.956	0.878	0.87	1.04
